From ChEMBL document CHEMBL1201862, “PubChem BioAssay data set” (2004)
Active and inactive are the calls of the source.

What was measured:
[1] = target: T1, Ubiquitin-conjugating enzyme E2 N (Homo sapiens, UniProt P61088); assay type: functional
T1 sequence (P61088 whole entry): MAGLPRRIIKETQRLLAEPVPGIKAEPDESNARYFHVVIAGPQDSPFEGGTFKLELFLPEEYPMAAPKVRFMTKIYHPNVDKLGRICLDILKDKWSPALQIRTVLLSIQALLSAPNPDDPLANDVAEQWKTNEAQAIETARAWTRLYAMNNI

Beta-galactosidase = Beta-galactosidase (Escherichia coli, UniProt Q8VNN2); test: detection-enzyme interference by beta-gal modulators – biochemical, E. coli enzyme, set 3, artefact control for CCR6 antagonist project, dose response (AID 504712); assay type: functional
Sequence of Beta-galactosidase (Q8VNN2 whole entry): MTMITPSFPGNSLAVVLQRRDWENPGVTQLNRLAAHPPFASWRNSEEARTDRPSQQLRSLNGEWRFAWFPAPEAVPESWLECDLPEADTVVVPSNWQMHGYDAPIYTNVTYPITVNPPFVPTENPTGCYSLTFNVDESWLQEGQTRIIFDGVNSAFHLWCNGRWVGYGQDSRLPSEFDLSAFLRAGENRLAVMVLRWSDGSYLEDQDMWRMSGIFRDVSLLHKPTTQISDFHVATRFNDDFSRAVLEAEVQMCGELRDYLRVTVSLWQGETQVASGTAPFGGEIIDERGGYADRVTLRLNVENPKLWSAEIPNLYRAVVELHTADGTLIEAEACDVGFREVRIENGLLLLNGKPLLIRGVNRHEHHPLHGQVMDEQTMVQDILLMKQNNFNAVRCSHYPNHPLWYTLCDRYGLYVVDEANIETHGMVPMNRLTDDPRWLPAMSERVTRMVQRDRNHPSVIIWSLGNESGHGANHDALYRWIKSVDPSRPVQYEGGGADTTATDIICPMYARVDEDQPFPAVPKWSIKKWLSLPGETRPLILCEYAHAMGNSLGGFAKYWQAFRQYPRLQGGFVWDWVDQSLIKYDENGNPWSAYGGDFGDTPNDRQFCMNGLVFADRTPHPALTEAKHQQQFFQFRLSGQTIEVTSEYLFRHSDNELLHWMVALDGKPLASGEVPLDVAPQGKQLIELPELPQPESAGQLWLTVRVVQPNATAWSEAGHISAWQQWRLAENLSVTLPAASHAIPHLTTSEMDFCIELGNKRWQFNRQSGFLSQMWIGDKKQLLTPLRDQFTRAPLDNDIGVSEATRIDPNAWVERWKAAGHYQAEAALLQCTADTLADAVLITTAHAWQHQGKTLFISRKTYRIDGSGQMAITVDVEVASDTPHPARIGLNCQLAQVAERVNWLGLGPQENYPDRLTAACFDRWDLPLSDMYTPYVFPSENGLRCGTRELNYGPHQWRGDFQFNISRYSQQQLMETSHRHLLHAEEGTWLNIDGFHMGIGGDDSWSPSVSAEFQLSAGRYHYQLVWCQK

[2] = test system: Streptococcus sp. 'group A'; test: Streptococcus pyogenes SK(-)GAS viability under kanamycin – luminescence, BacTiterGlo, confirmation, counter-screen for streptokinase expression inhibitor project, dose response (AID 1900); assay type: functional, organism-based
[3] = Luminescence Cell-Based Dose Retest to Confirm Inhibitors of Cancer Stem Cells. [Related pubchem assays (depositor defined):AID2717, AID2721]; assay type: functional; details: Homo sapiens
Streptococcus = test: GAS UMAA2166 growth inhibition – luminescence, BacTiterGlo, counter-screen for streptokinase expression inhibitor project, dose response (AID 1915); assay type: functional, organism-based;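 also: potency for reduction of bacterial viability or growth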
[4] = target: G-protein coupled receptor 55 (Homo sapiens, UniProt Q9Y2T6); test: inhibition of LPI-stimulated GPR55 beta-arrestin translocation – imaging, U2OS, beta-arrestin-GFP, LPI agonist, primary screen (AID 2013); assay type: functional;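 also: antagonist potency measured as reduced agonist-driven arrestin aggregation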
Sequence of G-protein coupled receptor 55 (Q9Y2T6 whole entry): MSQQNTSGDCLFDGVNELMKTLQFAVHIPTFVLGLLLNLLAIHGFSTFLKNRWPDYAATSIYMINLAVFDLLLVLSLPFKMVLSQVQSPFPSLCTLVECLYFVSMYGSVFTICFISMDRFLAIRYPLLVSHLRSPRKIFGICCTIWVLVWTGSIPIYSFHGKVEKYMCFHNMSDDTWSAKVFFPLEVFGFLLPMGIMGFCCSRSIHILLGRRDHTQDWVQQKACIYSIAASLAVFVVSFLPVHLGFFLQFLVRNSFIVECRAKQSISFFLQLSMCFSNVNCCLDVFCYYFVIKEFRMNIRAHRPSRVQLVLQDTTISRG

Streptokinase A = target: T2, Streptokinase A (Streptococcus pyogenes serotype M1, UniProt P10520); test: viability-normalized secreted streptokinase activity reduction – plasminogen activation absorbance, OD405, dose response (AID 1914); assay type: functional, Streptococcus pyogenes M1 GAS;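 also: secreted streptokinase activity via plasminogen activation per viability signal from cell pellet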
T2 sequence (P10520 whole entry): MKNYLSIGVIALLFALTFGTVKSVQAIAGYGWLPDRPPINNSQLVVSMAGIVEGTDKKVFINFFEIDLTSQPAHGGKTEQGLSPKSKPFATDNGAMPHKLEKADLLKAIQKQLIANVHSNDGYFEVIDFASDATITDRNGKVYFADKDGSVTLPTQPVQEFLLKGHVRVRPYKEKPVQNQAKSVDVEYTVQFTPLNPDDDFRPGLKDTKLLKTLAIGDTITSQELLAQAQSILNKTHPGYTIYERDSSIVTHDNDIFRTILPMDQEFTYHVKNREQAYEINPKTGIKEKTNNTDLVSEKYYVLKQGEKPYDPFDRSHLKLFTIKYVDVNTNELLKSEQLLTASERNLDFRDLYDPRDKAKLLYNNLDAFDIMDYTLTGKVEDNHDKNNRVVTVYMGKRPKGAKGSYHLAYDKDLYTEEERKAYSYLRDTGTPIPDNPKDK

[5] = target: T3, C-C chemokine receptor type 6 (Homo sapiens, UniProt P51684); test: antagonism of CCR6 beta-arrestin recruitment – cell-based, luminescent beta-arrestin readout, dose response (AID 504728); assay type: functional
T3 sequence (P51684 whole entry): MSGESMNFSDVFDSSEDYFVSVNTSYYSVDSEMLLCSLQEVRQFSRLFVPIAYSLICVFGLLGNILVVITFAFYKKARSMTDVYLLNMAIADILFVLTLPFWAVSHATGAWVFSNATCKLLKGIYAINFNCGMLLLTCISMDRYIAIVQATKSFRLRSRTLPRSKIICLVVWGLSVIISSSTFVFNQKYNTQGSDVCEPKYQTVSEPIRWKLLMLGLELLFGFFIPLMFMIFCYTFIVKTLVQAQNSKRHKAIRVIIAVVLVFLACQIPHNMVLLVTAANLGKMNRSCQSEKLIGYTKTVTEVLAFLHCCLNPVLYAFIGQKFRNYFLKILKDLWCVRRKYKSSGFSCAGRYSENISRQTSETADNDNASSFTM

[6] = target: T4, Type-1 angiotensin II receptor (Homo sapiens, UniProt P30556); test: agonist activity at AGTR1 – cell-based, uHTS hits, selectivity assay for APJ receptor agonist project, dose response (AID 488865); assay type: functional;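 also: beta-arrestin recruitment to AT1 measured by enzyme fragment complementation luminescence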
T4 sequence (P30556 whole entry): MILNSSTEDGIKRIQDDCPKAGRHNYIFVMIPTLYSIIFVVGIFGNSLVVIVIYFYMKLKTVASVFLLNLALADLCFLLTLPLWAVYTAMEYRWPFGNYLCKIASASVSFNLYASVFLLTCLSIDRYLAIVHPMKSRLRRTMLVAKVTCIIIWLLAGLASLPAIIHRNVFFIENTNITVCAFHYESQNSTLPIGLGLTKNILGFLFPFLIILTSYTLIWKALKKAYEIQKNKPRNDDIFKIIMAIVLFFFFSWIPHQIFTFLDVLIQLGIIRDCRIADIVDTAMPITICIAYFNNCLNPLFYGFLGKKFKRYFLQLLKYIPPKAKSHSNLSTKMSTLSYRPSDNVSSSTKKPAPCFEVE

[7] = target: T1, Ubiquitin-conjugating enzyme E2 N; assay type: functional; remark: listed apart in the source
Bcl-2-related protein A1 = target: T5, Bcl-2-related protein A1 (Mus musculus, UniProt Q07440); assay type: functional;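 also: confirmatory dose–response counterscreen on Bfl-1, used to check hits from a UBC13 polyubiquitin inhibitor campaign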
T5 sequence (Q07440 whole entry): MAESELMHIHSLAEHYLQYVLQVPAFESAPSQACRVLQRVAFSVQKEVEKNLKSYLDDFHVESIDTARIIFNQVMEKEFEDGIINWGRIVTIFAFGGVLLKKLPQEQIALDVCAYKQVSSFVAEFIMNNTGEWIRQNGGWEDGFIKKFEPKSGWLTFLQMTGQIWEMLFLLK

Integrin alpha-4 = Integrin alpha-4 (Homo sapiens, UniProt P13612); test: allosteric modulators of alpha4 integrin VLA-4 – cell-based, LIBS antibody binding, flow cytometry, SAR follow-up (AID 488791); assay type: functional
Sequence of Integrin alpha-4 (P13612 whole entry): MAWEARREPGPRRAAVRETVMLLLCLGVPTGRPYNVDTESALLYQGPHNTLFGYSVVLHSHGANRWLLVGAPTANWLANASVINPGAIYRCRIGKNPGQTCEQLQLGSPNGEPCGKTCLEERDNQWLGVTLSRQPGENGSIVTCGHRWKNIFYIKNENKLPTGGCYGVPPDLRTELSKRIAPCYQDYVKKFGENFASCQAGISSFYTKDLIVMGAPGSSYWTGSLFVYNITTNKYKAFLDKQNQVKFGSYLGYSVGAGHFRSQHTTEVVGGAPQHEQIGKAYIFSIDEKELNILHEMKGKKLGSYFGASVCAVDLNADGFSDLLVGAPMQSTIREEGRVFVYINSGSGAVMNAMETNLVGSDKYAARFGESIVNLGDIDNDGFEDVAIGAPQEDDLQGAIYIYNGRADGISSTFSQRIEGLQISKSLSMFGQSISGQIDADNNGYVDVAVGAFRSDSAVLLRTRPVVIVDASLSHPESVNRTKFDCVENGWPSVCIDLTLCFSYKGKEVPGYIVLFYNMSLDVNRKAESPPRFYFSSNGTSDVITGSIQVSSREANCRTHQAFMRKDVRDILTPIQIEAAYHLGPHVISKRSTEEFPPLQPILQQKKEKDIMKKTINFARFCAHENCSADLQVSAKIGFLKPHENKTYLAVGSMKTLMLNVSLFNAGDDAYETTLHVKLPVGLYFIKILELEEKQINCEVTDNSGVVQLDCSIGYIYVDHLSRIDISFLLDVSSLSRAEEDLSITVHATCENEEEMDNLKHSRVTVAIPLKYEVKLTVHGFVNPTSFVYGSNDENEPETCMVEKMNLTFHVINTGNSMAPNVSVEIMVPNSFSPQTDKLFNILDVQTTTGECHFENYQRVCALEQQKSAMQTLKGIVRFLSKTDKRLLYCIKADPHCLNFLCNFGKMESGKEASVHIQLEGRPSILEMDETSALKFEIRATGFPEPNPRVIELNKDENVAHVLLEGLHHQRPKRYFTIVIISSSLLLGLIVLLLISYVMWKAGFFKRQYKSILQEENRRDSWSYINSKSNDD

Melanocortin receptor 4 = Melanocortin receptor 4 (Homo sapiens, UniProt P32245); assay type: functional, cell-based;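 also: Cell-based assay with luminescence read-out, confirmatory dose-response testing for agonist activity of biased ligands at MC4R; human U2OS cells with tagged receptor and beta-arrestin; potency of agonists that increase receptor coupling to beta-arrestin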
Sequence of Melanocortin receptor 4 (P32245 whole entry): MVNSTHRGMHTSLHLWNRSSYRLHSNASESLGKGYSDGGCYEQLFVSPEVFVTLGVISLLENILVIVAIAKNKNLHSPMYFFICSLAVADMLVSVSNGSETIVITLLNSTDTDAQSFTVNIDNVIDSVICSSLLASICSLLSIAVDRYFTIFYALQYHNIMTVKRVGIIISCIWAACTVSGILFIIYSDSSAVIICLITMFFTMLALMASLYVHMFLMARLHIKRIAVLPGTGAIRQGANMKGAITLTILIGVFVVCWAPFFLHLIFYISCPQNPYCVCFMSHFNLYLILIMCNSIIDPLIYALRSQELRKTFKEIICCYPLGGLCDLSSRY
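For AC50 in this document: cells exposed to compound for roughly 70 hours or longer before luminescence read.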

## Cc1c(CCOC(=O)C2C3CC4CC(C3)CC2C4)sc[n+]1CC(=O)c1ccc(Br)cc1 (stereo not given)
[1]
  IC50: > 20 µM (inactive)
Beta-galactosidase
  IC50: > 66.6 µM (inactive)
[2]
  EC50: 8.85 µM (active)
[3]
  AC50: 2.17 µM (active)
Streptococcus
  EC50: > 150 µM (not active)
[4]
  IC50: 3.25 µM (active)
Streptokinase A
  EC50: 21.9 µM (active)
[5]
  IC50: 27 µM (inactive)

## CCOc1ccc2nc(N(CCCN(C)C)C(=O)c3ccc(S(=O)(=O)N4CCc5ccccc5C4)cc3)sc2c1
[6]
  EC50: > 100 µM (inactive)
[1]
  IC50: 6.95 µM (active)
[7]
  IC50: 5.52 µM (active)
Bcl-2-related protein A1
  IC50: > 20 µM (inactive)

## c1ccc(-c2sc3ccccc3c2-c2ccc(OCCN3CCCC3)cc2)cc1
[3]
  AC50: 2.21 µM (active)
Integrin alpha-4
  EC50: 26.1 µM (active)
Melanocortin receptor 4
  EC50: > 89.2 µM (inactive)
